Experimental data from PMC3466213, “Discovery of Novel Orally Active Anti-Inflammatory N-Phenylpyrazolyl-N-Glycinyl-Hydrazone Derivatives That Inhibit TNF-α Production” (PLoS ONE, 2012).
Entries after “also recorded” stand apart in the source; their conditions may differ.

How the values were obtained:
Rat plasma stability = type: in vitro ADME; conditions: 50 µM; for % Recovered amount after 60 min, rat plasma: 37 °C
Protocol: The rat plasma was obtained from blood by centrifugation and diluted in phosphate buffer (pH 7.4). The test compounds were added at final concentration of 50 µM with 0.25 mL of final volume and incubated at 37°C for 60 min under agitation. At the end of the incubation time the reaction was stopped by the addition of 375 µL of MeOH and 375 µL of CH3CN. The experiments were performed in duplicate. The samples were centrifuged and filtered for HPLC-UV analysis.
(§1) The organic fraction was analyzed with the Shimadzu Prominence HPLC system (Shimadzu, Tokio, Japan) consisting of a vacuum degasser (DGU-20A5), a binary pump (LC-20AD), a autosampler (SIL-20A), UV/VIS Photodiode Array Detector (SPD-M20A) and fitted with a guard column (CLC G-ODS) and a Shimadzu (CLC-ODS, M) column (250 mm×4.6 mm i.d.) running at room temperature. Isocratic elution was performed with acetonitrile-water (40∶60 v/v), at a flow rate set at 1 mL/min. The mobile phase pH was adjusted to 8.0 with NH4OH solution. The detection was carried out at 285 nm and 330 nm wavelength for compound 4f and 4a, respectively.

[1] = tested on: TNF-α level in carrageenan-injected paws; test: TNF-α level in carrageenan-injected paws (ELISA); type: in vivo; conditions: rat paw, 4 h after carrageenan, 100 µmol/kg p.o.
Protocol: (§2) Wistar rats of both sexes (150–200g) were used. The compounds were administered orally (100 µmol.5mL-1.kg-1) as a suspension in 5% arabic gum in saline (vehicle). Control animals received an equal volume of vehicle. One hour later, the animals were injected with either 0.1 ml of 1% carrageenan solution in saline or sterile saline (NaCl 0.9%), into the subplantar surface of one of the hind paws. The thermal hypernociception was determined using the modified hot-plate test. Rats are placed individually on a hot plate with the temperature adjusted to 51°C. The latency of the withdrawal response of the left hind paw is determined at 0, 30, 60, 120, 180, and 240 min post-challenge. The time of maximum permanence permitted on the hot surface is 20 s. Hypernociception to heat is defined as a decrease in withdrawal latency and calculated as follows: Δ paw withdrawal latency (s) = (left paw withdrawal latency at time 0) – (left paw withdrawal latency at the others times).
The paw was homogenized 4 h after intraplantar injection of carrageenan, and the level of TNF-α in the supernatant was determined by ELISA.

[2] = tested on: carrageenan-induced thermal hypernociception; test: Carrageenan-induced thermal hypernociception (modified hot-plate test); type: in vivo, rat; conditions: rats, 100 µmol/kg p.o.
Protocol: as §2

[3] = Cell viability by MTT assay; type: cell-based; conditions: mouse, murine peritoneal macrophages, vs vehicle (DMSO)
Protocol: The peritoneal macrophage were obtained and plated as described above. The cells were incubated with the vehicle or compounds for 20 hours when was added 20 µl of MTT (3-(4,5-dimethylthiazol-2-yl)-2,5-diphenyltetrazolium bromide) solution (5 mg/mL), followed by 4 hour of incubation. Then, the culture mediums were collected and the precipitates were solubilized in 200 µl of DMSO. The optical density was measured at 490 nm.

p38α MAPK = p38α MAPK (Homo sapiens, UniProt Q16539); test: In vitro p38α MAPK activity inhibition (nonradioactive immunosorbent assay, ref 23); type: biochemical
p38α MAPK, sequence (Q16539 whole entry): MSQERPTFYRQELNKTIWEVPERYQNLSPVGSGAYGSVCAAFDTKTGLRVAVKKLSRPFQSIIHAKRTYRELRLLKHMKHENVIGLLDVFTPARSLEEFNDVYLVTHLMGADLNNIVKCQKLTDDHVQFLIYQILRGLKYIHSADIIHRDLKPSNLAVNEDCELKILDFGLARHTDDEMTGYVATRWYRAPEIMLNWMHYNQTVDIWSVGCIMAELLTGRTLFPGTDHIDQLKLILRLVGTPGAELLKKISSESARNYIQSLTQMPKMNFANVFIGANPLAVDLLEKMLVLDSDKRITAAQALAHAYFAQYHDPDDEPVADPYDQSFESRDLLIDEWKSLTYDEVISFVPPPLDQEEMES
Protocol: Because the novel N-acylhydrazone derivatives 4a–g were designed based on the p38α MAPK inhibitor BIRB-796 (3), they were all evaluated for their in vitro capacity to inhibit p38α MAPK activity at a concentration of 10 µM.
*This assay was performed as described in reference 23.

TNF-α production = test: LPS-induced TNF-α production in culture of mice peritoneal macrophage (ELISA); type: cell-based; conditions: for IC50: mouse peritoneal macrophages, at least five concentrations, range tested in parentheses, read-out: TNF-α Inhibition IC50; for inhibition at 10 µM: read-out: TNF-α Inhibition, % inhibition at 10 µM, mouse peritoneal macrophages, 10 µM, vs vehicle (DMSO), n = 3
Protocol: BALBc mice were stimulated with thyoglicollate 3% (1 mL/mice; i.p.) and 3 days later the peritoneal cavity were washed with RPMI 1640 and the peritoneal macrophages were plated onto 96-wells plate (30.000 cells/well) for 1 hour at 37°C in an humidified 5% CO2 atmophere. Then, macrophages were incubated with the vehicle or compounds and 1 hour later stimulated with LPS (100 ng/mL) for 24 hour when the supernatants were collected to evaluate TNF-α production by ELISA kit (BD Bioscience).

[4] = Rat liver microsomal stability; type: in vitro ADME; conditions: 50 µM, 37 °C, 1 mg/mL protein
Protocol: The incubation was conducted at 37°C for 60 min. The experiments contains MgCl2 (1.3 mM), NADP+ (0.4 mM), glucose-6-phosphate (3.5 mM), 0.5 U/mL glucose-6-phosphate dehydrogenase in a phosphate buffer (0.1 M, pH 7.4) containing EDTA (1.5 mM) and the test compounds were added at final concentration of 50 µM with 0.25 mL of final volume. After the pre-warming of the mixture at 37 °C, the microsomal proteins were added to give a final protein concentration of 1 mg/mL. At the end of the incubation time the reaction was stopped by the addition of 375 µL of MeOH and 375 µL of CH3CN. The experiments were performed in duplicate. The samples were centrifuged and filtered for HPLC-UV analysis.
as §1

[5] = Aqueous solubility in phosphate buffer (HPLC-UV); type: physicochemical
Protocol: as §1

SMILES	% Recovered amount after 60 min, rat plasma (Rat plasma stability) [%]	Suppression of the elevation of tissue TNF-α level [1] [%]	Anti-hypernociceptive effect (in words) [2]	viability at 20 h, 3 µM [3] [%]	viability at 20 h, 10 µM [3] [%]	inhibition at 10 µM (p38α MAPK) [%]	IC50 (TNF-α production) [µM]	inhibition at 10 µM (TNF-α production) [%]	% Recovered amount after 60 min, rat liver microsomes [4] [%]	melting point [°C]	Resistance to plasma degradation relative to 4f (Rat plasma stability; rat plasma, 60 min)	Improvement in aqueous solubility at pH 6.4 (versus pH 7.4) ([5]; pH 6.4 compared with pH 7.4)	Improvement in solubility of 4a compared with 4f at pH 6.4 ([5]; phosphate buffer pH 6.4, 37 °C, 24 h)	Improvement in solubility of 4a compared with 4f at pH 7.4 ([5]; phosphate buffer pH 7.4, 37 °C, 24 h)
CC(C)(C)c1cc(NCC(=O)N/N=C/c2ccc(Cl)cc2)n(-c2ccccc2)n1 [Compound 4f, (E)-2-(3-tert-butyl-1-phenyl-1H-pyrazol-5-ylamino)-N’-(4-chlorobenzylidene)acetohydrazide]	13.3	55.8	comparable to SB-203580; also recorded: partially inhibit this response	100	46.6	15.3	1.6	93.2	86.7					
CC(C)(C)c1cc(NCC(=O)N/N=C/c2ccccc2)n(-c2ccccc2)n1 [Compound 4g, (E)-N’-benzylidene-2-(3-tert-butyl-1-phenyl-1H-pyrazol-5-ylamino)acetohydrazide]				100	99.8	19.5		50.4						
CC(C)(C)c1cc(NCC(=O)N/N=C/c2cccc3ccccc23)n(-c2ccccc2)n1 [Compound 4c, (E)-2-(3-tert-butyl-1-phenyl-1H-pyrazol-5-ylamino)-N’-(naphthalen-1-ylmethylene)acetohydrazide]				100	90.4	19.7	5.5	61.2		140				
CN(CC(=O)N/N=C/c1ccccc1)c1cc(C(C)(C)C)nn1-c1ccccc1 [Compound 15, (E)-N’-benzylidene-2-((3-tert-butyl-1-phenyl-1H-pyrazol-5-yl)(methyl)amino)acetohydrazide]										156 to 158				
CC(C)(C)c1cc(NCC(=O)N/N=C/c2ccc(OCCN3CCOCC3)cc2)n(-c2ccccc2)n1 [Compound 4d, (E)-2-(3-tert-butyl-1-phenyl-1H-pyrazol-5-ylamino)-N’-(4-(2-morpholinoethoxy)benzylidene)acetohydrazide]				100	100	16.4		52.5		158				
C[S+]([O-])c1ccc(-c2nc(-c3ccncc3)c(-c3ccc(F)cc3)[nH]2)cc1 (centres unmarked) [SB-203580 (1), SB-203580, reference compound]				100	44.3			90						
CC(C)(C)c1cc(NCC(=O)N/N=C/c2ccc(O)cc2)n(-c2ccccc2)n1 [Compound 4e, (E)-2-(3-tert-butyl-1-phenyl-1H-pyrazol-5-ylamino)-N’-(4-hydroxybenzylidene)acetohydrazide]				100	97.8	~30		8.1						
CC(C)=NNC(=O)CNc1cc(C(C)(C)C)nn1-c1ccccc1 [Compound 9, 2-(3-tert-butyl-1-phenyl-1H-pyrazol-5-ylamino)-N’-(propan-2-ylidene)acetohydrazide]										181 to 183				
CC(C)(C)c1cc(NCC(=O)N/N=C/c2ccc(OCCN3CCOCC3)c3ccccc23)n(-c2ccccc2)n1 [Compound 4a, (E)-2-(3-tert-butyl-1-phenyl-1H-pyrazol-5-ylamino)-N’-((4-(2-morpholinoethoxy)naphthalen-1-yl)methylene)acetohydrazide]	40.7	57.3	comparable to SB-203580; also recorded: completely inhibit the hypernociceptive response	100	61.5	-5.35	3.6	96.9	90.1	180	about four	ca. three	ca. 12 times	ca. 5 times
CC(C)(C)c1cc(NCC(=O)N/N=C/c2ccc(O)c3ccccc23)n(-c2ccccc2)n1 [Compound 4b, (E)-2-(3-tert-butyl-1-phenyl-1H-pyrazol-5-ylamino)-N’-((4-hydroxynaphthalen-1-yl)methylene)acetohydrazide]				100	100	~30	4.3	75.4		270				
